Experimental data as given in patent publication US9611249B2, “1H-indazole-3-carboxamide compounds as glycogen synthase kinase 3 beta inhibitors” (AZIENDE CHIMICHE RIUNITE ANGELINI FRANCESCO A.C.R.A.F. …, priority 2012, dated 2017).

Assays:
Format in all cases: biochemical
[1] = target: EphA4 kinase (h) (Homo sapiens (Human), UniProt P54764); test: Kinase selectivity panel: EphA4 kinase (h); settings: 10 μM in duplicate, read-out: % inhibition of control values
Procedure: (§1) (a) Compounds 1 and 2 were tested against a panel of 60 kinases in order to assess their selectivity. The assays were chosen taking into consideration the diversity of assay families.
(§2) Tested kinases were representative of following kinase sub-families: • protein-serine/threonine kinases; • protein-tyrosine kinases; • other kinases; and • atypical kinases.
(§3) Human recombinant kinases were incubated in the presence of specific peptide substrates plus ATP for different times (10, 15, 30, 60 or 90 minutes) at 22° C. Phosphorylated substrate was detected by LANCE or HTRF technology (CISBIO, MA, USA). The compounds were tested at 10 μM in duplicate.
(§4) The results are expressed as a percentage of inhibition of control specific activity obtained in the presence of the test compounds and are reported in the following Table 5.
(§5) (b) Compounds 3, 8, 29 and 31 were tested against the same panel of 60 kinases under the same conditions described above for compounds 1 and 2.
(§6) The results are expressed as a percent of inhibition of control specific activity obtained in the presence of the test compounds and are reported in the following Table 6.

[2] = target: EphB2 kinase (h) (Homo sapiens (Human), UniProt P29323); test: Kinase selectivity panel: EphB2 kinase (h); settings: 10 μM in duplicate, read-out: % inhibition of control values
Procedure: as §1, §2, §3, §4, §5, §6

[3] = target: EphB4 kinase (h) (Homo sapiens (Human), UniProt P54760); test: Kinase selectivity panel: EphB4 kinase (h); settings: 10 μM in duplicate, read-out: % inhibition of control values
Procedure: as §1, §2, §3, §4, §5, §6

[4] = target: FGFR4 kinase (h) (Homo sapiens (Human), UniProt P22455); test: Kinase selectivity panel: FGFR4 kinase (h); settings: 10 μM in duplicate, read-out: % inhibition of control values
Procedure: as §1, §2, §3, §4, §5, §6

[5] = target: IRK (h) (InsR) (Homo sapiens (Human), UniProt P06213); test: Kinase selectivity panel: IRK (h) (InsR); settings: 10 μM in duplicate, read-out: % inhibition of control values
Procedure: as §1, §2, §3, §4, §5, §6

[6] = target: Ret kinase (h) (Homo sapiens (Human), UniProt P07949); test: Kinase selectivity panel: Ret kinase (h); settings: 10 μM in duplicate, read-out: % inhibition of control values
Procedure: as §1, §2, §3, §4, §5, §6

[7] = target: TRKA (h) (Homo sapiens (Human), UniProt P04629); test: Kinase selectivity panel: TRKA (h); settings: 10 μM in duplicate, read-out: % inhibition of control values
Procedure: as §1, §2, §3, §4, §5, §6

[8] = target: Abl kinase (h) (Homo sapiens (Human), UniProt P00519); test: Kinase selectivity panel: Abl kinase (h); settings: 10 μM in duplicate, read-out: % inhibition of control values
Procedure: as §1, §2, §3, §4, §5, §6

[9] = target: Fyn kinase (h) (Homo sapiens (Human), UniProt P06241); test: Kinase selectivity panel: Fyn kinase (h); settings: 10 μM in duplicate, read-out: % inhibition of control values
Procedure: as §1, §2, §3, §4, §5, §6

[10] = target: GSK3beta (h) (Homo sapiens (Human), UniProt P49841); test: Kinase selectivity panel: GSK3beta (h); settings: GSK3beta (h); 10 μM in duplicate; read-out: % inhibition of control values
Procedure: as §1, §2, §3, §4, §6

[11] = target: DYRK1a (h) (Homo sapiens (Human), UniProt Q13627); test: Kinase selectivity panel: DYRK1a (h); settings: 10 μM in duplicate, read-out: % inhibition of control values
Procedure: as §1, §2, §3, §4, §5, §6

[12] = target: PCTAIRE1 kinase (h) (Homo sapiens (Human), UniProt Q00536); test: Kinase selectivity panel: PCTAIRE1 kinase (h); settings: 10 μM in duplicate, read-out: % inhibition of control values
Procedure: as §1, §2, §3, §4, §5, §6

[13] = target: CDK2 (h) (cycA) (Homo sapiens (Human), UniProt P24941); test: Kinase selectivity panel: CDK2 (h) (cycA); settings: 10 μM in duplicate, read-out: % inhibition of control values
Procedure: as §1, §2, §3, §4, §5, §6

[14] = target: CDK5/p35 (h) (Homo sapiens (Human), UniProt Q00535); test: Kinase selectivity panel: CDK5/p35 (h); settings: 10 μM in duplicate, read-out: % inhibition of control values
Procedure: as §1, §2, §3, §4, §5, §6

[15] = target: p38alpha kinase (h) (Homo sapiens (Human), UniProt Q16539); test: Kinase selectivity panel: p38alpha kinase (h); settings: 10 μM in duplicate, read-out: % inhibition of control values
Procedure: as §1, §2, §3, §4, §5, §6

[16] = target: CHK1 (h) (Homo sapiens (Human), UniProt O14757); test: Kinase selectivity panel: CHK1 (h); settings: 10 μM in duplicate, read-out: % inhibition of control values
Procedure: as §1, §2, §3, §4, §5, §6

[17] = target: DCAMKL1 (h) (Homo sapiens (Human), UniProt O15075); test: Kinase selectivity panel: DCAMKL1 (h); settings: 10 μM in duplicate, read-out: % inhibition of control values
Procedure: as §1, §2, §3, §4, §5, §6

[18] = target: Pim2 kinase (h) (Homo sapiens (Human), UniProt Q9P1W9); test: Kinase selectivity panel: Pim2 kinase (h); settings: 10 μM in duplicate, read-out: % inhibition of control values
Procedure: as §1, §2, §3, §4, §5, §6

[19] = target: MAPKAPK2 (h) (Homo sapiens (Human), UniProt P49137); test: Kinase selectivity panel: MAPKAPK2 (h); settings: 10 μM in duplicate, read-out: % inhibition of control values
Procedure: as §1, §2, §3, §4, §5, §6

[20] = target: PhKgamma 2 (h) (Homo sapiens (Human), UniProt P15735); test: Kinase selectivity panel: PhKgamma 2 (h); settings: 10 μM in duplicate, read-out: % inhibition of control values
Procedure: as §1, §2, §3, §4, §5, §6

[21] = target: Pim1 kinase (h) (Homo sapiens (Human), UniProt P11309); test: Kinase selectivity panel: Pim1 kinase (h); settings: 10 μM in duplicate, read-out: % inhibition of control values
Procedure: as §1, §2, §3, §4, §5, §6

[22] = target: GRK3/BARK2 (h) (ADRBK2) (Homo sapiens (Human), UniProt P35626); test: Kinase selectivity panel: GRK3/BARK2 (h) (ADRBK2); settings: 10 μM in duplicate, read-out: % inhibition of control values
Procedure: as §1, §2, §3, §4, §5, §6

[23] = target: Akt1/PKBalpha (h) (Homo sapiens (Human), UniProt P31749); test: Kinase selectivity panel: Akt1/PKBalpha (h); settings: 10 μM in duplicate, read-out: % inhibition of control values
Procedure: as §1, §2, §3, §4, §5, §6

[24] = target: RSK2 (h) (Homo sapiens (Human), UniProt P51812); test: Kinase selectivity panel: RSK2 (h); settings: 10 μM in duplicate, read-out: % inhibition of control values
Procedure: as §1, §2, §3, §4, §5, §6

[25] = target: PKCalpha (h) (Homo sapiens (Human), UniProt P17252); test: Kinase selectivity panel: PKCalpha (h); settings: 10 μM in duplicate, read-out: % inhibition of control values
Procedure: as §1, §2, §3, §4, §5, §6

[26] = target: PKCbeta 1 (h) (Homo sapiens (Human), UniProt P05771); test: Kinase selectivity panel: PKCbeta 1 (h); settings: 10 μM in duplicate, read-out: % inhibition of control values
Procedure: as §1, §2, §3, §4, §5, §6

[27] = target: PKCgamma (h) (Homo sapiens (Human), UniProt P05129); test: Kinase selectivity panel: PKCgamma (h); settings: 10 μM in duplicate, read-out: % inhibition of control values
Procedure: as §1, §2, §3, §4, §5, §6

[28] = target: CK1alpha (h) (Homo sapiens (Human), UniProt P48729); test: Kinase selectivity panel: CK1alpha (h); settings: 10 μM in duplicate, read-out: % inhibition of control values
Procedure: as §1, §2, §3, §4, §5, §6

[29] = target: PAK1 (h) (Homo sapiens (Human), UniProt Q13153); test: Kinase selectivity panel: PAK1 (h); settings: 10 μM in duplicate, read-out: % inhibition of control values
Procedure: as §1, §2, §3, §4, §5, §6

[30] = target: DLK1 (h) (MAP3K12) (Homo sapiens (Human), UniProt Q12852); test: Kinase selectivity panel: DLK1 (h) (MAP3K12); settings: 10 μM in duplicate, read-out: % inhibition of control values
Procedure: as §1, §2, §3, §4, §5, §6

[31] = target: IKKepsilon (h) (IKBKE) (Homo sapiens (Human), UniProt Q14164); test: Kinase selectivity panel: IKKepsilon (h) (IKBKE); settings: 10 μM in duplicate, read-out: % inhibition of control values
Procedure: as §1, §2, §3, §4, §5, §6

[32] = target: NEK7 (h) (Homo sapiens (Human), UniProt Q8TDX7); test: Kinase selectivity panel: NEK7 (h); settings: 10 μM in duplicate, read-out: % inhibition of control values
Procedure: as §1, §2, §3, §4, §5, §6

[33] = target: AurB/Aur1 kinase (h) (Homo sapiens (Human), UniProt Q96GD4); test: Kinase selectivity panel: AurB/Aur1 kinase (h); settings: 10 μM in duplicate, read-out: % inhibition of control values
Procedure: as §1, §2, §3, §4, §5, §6

Sequence of Abl kinase (h) (P00519 whole entry): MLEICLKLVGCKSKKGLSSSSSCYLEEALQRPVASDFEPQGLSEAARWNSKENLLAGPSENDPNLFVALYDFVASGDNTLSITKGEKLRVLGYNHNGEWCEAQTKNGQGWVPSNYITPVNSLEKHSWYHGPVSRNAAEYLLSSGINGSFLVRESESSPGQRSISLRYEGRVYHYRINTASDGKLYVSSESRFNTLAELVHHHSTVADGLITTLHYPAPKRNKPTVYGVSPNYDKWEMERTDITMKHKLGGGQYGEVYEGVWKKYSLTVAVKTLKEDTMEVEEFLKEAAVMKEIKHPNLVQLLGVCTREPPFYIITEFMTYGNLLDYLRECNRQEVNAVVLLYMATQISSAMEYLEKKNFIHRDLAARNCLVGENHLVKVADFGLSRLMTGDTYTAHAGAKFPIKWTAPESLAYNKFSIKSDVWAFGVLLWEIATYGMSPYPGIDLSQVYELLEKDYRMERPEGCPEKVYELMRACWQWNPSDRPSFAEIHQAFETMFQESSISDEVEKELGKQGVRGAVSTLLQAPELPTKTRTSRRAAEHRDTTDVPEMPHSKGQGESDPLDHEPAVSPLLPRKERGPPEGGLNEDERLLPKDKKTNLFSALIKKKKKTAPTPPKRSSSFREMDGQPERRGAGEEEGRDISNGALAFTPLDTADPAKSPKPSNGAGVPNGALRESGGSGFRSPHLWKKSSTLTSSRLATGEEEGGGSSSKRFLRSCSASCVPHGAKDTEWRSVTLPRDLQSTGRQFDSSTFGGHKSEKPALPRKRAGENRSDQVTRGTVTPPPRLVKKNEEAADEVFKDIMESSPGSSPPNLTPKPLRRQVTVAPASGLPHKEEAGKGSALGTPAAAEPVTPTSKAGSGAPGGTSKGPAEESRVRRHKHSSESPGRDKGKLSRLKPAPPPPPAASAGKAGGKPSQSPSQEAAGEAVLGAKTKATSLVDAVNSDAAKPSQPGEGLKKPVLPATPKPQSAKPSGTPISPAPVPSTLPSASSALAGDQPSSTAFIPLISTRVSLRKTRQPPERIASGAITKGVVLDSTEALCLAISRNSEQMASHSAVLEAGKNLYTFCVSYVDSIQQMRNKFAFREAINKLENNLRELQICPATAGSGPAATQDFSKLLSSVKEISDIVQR
Sequence of CDK5/p35 (h) (Q00535 whole entry): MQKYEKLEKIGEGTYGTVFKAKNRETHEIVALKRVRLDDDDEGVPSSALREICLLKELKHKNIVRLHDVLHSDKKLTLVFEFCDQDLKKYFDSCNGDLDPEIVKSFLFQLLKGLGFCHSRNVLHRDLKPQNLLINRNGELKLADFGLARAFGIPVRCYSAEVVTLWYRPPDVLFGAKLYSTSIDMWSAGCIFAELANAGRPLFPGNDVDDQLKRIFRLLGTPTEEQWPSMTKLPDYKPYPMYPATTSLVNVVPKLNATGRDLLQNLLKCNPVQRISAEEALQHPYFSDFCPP
Sequence of CDK5/p35 (h) (Q15078 whole entry partner): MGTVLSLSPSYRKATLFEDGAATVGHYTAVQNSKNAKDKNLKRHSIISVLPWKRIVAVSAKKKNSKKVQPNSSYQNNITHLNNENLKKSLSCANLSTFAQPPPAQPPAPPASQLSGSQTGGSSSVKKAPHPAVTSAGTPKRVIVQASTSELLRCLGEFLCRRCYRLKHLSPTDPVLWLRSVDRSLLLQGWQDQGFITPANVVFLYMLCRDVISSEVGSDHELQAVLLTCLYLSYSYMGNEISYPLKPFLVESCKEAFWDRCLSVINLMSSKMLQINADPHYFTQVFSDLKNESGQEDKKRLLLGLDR
Sequence of FGFR4 kinase (h) (P22455 22-802): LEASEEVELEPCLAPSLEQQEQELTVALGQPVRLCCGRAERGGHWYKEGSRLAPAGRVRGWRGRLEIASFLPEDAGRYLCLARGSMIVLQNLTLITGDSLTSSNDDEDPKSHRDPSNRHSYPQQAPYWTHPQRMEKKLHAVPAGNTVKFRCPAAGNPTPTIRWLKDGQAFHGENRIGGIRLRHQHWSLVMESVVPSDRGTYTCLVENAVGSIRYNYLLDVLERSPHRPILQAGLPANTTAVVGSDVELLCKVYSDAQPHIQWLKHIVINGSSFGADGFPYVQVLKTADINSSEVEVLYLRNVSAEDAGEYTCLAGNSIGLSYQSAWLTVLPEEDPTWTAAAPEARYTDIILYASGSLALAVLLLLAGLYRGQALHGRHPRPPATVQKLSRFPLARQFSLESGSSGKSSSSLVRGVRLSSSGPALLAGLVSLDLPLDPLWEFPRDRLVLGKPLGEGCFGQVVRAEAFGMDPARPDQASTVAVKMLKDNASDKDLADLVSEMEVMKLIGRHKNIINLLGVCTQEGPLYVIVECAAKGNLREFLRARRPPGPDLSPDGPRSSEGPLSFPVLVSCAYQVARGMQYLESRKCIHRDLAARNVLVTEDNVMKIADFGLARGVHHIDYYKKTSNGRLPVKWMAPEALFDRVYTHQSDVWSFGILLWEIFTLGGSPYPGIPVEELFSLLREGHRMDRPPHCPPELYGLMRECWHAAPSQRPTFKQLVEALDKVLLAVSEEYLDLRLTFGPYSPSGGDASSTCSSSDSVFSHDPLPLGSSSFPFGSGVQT
Sequence of GRK3/BARK2 (h) (ADRBK2) (P35626 whole entry): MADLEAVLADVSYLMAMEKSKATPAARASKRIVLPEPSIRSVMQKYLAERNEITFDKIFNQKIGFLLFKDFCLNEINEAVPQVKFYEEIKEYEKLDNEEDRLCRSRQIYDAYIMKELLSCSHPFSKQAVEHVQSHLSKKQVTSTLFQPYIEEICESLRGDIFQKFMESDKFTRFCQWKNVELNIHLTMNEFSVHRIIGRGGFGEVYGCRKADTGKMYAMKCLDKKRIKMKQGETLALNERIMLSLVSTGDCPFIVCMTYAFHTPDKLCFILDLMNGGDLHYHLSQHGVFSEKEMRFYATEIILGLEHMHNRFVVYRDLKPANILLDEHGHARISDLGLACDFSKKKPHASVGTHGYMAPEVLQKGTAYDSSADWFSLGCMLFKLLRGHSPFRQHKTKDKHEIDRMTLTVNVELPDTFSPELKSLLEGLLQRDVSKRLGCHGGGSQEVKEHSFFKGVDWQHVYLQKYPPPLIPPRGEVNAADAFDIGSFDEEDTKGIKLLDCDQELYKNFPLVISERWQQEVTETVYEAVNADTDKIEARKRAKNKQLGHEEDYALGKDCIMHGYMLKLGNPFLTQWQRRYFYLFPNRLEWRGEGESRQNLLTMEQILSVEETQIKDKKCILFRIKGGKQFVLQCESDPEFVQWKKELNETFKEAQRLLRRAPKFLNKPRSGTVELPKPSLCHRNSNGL
Sequence of EphA4 kinase (h) (P54764 20-986): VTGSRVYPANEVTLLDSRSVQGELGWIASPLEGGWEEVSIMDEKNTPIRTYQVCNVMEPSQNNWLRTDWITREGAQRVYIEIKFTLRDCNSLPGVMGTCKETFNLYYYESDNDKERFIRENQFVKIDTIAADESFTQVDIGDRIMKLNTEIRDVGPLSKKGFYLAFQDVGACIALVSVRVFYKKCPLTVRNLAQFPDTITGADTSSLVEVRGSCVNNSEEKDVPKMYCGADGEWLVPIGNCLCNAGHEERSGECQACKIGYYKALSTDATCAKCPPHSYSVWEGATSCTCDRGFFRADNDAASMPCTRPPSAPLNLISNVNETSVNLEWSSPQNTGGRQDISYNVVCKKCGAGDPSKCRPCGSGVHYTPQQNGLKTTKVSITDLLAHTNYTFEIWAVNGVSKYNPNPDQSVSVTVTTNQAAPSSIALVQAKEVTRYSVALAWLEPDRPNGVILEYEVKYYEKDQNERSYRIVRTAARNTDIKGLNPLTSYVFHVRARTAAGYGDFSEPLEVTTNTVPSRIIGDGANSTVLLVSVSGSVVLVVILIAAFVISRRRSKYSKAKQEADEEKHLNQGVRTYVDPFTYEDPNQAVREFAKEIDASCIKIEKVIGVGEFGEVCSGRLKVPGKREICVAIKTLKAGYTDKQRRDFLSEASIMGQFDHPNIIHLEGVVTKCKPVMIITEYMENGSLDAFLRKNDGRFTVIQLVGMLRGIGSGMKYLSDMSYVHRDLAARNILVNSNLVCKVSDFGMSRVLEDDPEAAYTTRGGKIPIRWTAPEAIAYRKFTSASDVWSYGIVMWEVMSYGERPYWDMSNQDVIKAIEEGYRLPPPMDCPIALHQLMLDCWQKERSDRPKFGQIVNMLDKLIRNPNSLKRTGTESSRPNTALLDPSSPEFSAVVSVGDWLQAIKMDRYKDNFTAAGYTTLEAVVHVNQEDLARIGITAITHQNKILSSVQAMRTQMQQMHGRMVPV

Row | inhibition at 10 µM [1] [%] | inhibition at 10 µM [2] [%] | inhibition at 10 µM [3] [%] | inhibition at 10 µM [4] [%] | inhibition at 10 µM [5] [%] | inhibition at 10 µM [6] [%] | inhibition at 10 µM [7] [%] | inhibition at 10 µM [8] [%] | inhibition at 10 µM [9] [%] | inhibition at 10 µM [11] [%] | inhibition at 10 µM [12] [%] | inhibition at 10 µM [13] [%] | inhibition at 10 µM [14] [%] | inhibition at 10 µM [15] [%] | inhibition at 10 µM [16] [%] | inhibition at 10 µM [17] [%] | inhibition at 10 µM [18] [%] | inhibition at 10 µM [19] [%] | inhibition at 10 µM [20] [%] | inhibition at 10 µM [21] [%] | Compound | other results
1 | 0 | 4 | 2 | 0 | 0 | 0 | 1 | 0 | 0 | 76 | 22 | 18 | 19 | 0 | 5 | 0 | 3 | 0 | 30 | 0 | COc1ccc2[nH]nc(C(=O)NCC3CCN(CC(=O)O)CC3)c2c1 [Compound 1, [4-({[(5-methoxy-1H-indazol-3-yl)-carbonyl]amino}methyl)piperidin-1-yl]acetic acid] | inhibition at 10 µM [10]: 94%; inhibition at 10 µM [22]: 0%; inhibition at 10 µM [23]: 0%; inhibition at 10 µM [24]: 0%; inhibition at 10 µM [25]: 0%; inhibition at 10 µM [26]: 0%; inhibition at 10 µM [27]: 3%; inhibition at 10 µM [28]: 0%; inhibition at 10 µM [29]: 1%; inhibition at 10 µM [30]: 0%; inhibition at 10 µM [31]: 0%; inhibition at 10 µM [32]: 0%; inhibition at 10 µM [33]: 0%
2 | 0 | 2 | 0 | 2 | 9 | 0 | 14 | 0 | 0 | 99 | 84 | 92 | 77 | 1 | 0 | 0 | 0 | 17 | 0 | 17 | COCCN1CCC(CNC(=O)c2n[nH]c3ccc(-c4cccc(F)c4F)cc23)CC1 [Compound 8, 5-(2,3-difluorophenyl)-N-{[1-(2-methoxyethyl)piperidin-4-yl]methyl}-1H-indazole-3-carboxamide] | inhibition at 10 µM [22]: 8%; inhibition at 10 µM [23]: 0%; inhibition at 10 µM [24]: 4%; inhibition at 10 µM [25]: 19%; inhibition at 10 µM [26]: 28%; inhibition at 10 µM [27]: 0%; inhibition at 10 µM [28]: 6%; inhibition at 10 µM [29]: 3%; inhibition at 10 µM [30]: 58%; inhibition at 10 µM [31]: 3%; inhibition at 10 µM [32]: 0%; inhibition at 10 µM [33]: 0%
